Patent US9999620B2, “CaMKK-β as a target for treating cancer” (Duke University, priority 2010, dated 2018)

Assays:
Type in all cases: cell-based, human
[1] = test system: VCaP cells; experiment: Cell proliferation assay (FluoReporter Blue DNA content); settings: +/-1 nM R1881 and +/-30 mM STO-609 on d 3, d 5, d 7, read on d 10
From the text: FIG. 6. CaMKKβ activity in androgen-mediated cell migration in prostate cancer cells. […] Cell lysates were then subjected to western blot analysis and subsequent densitometry (right). Phospho-[…]) levels were normalized to total CaMKI. Results are expressed as fold induction/phosphorylation over double vehicle-treated cells+SE (n=2). *, P<0.05 indicates significant changes from vehicle-treated cells. ^#, P<0.05 indicates significant changes from vehicle (no STO-609)-treated cells. B, VCaP cells were plated in 96-well plates and grown for 3 d. […] On d 10, cells were lysed and the relative number of cells was measured with the fluorescent DNA binding dye FluoReporter Blue. Each sample was performed in triplicate, and results from a representative experiment are shown. […] Cells were then dissociated and reseeded into the top chamber for a Boyden dual chamber migration assay. […] After 16 h, migrated cells were fixed, stained with crystal violet and counted in three different microscopic fields and added together. […] Proliferation assays were performed as previously described (12) by measuring the cellular DNA content using the FluoReporter Blue Fluorometric double-stranded DNA Quantitation Kit (Invitrogen) as per the manufacturer's protocol.

[2] = test system: VCaP cells; experiment: Boyden dual chamber migration assay; settings: 1 h +/-30 mM STO-609, overnight +/-10 nM R1881, 16 h migration, 5% FBS chemoattractant
From the text: FIG. 6. CaMKKβ activity in androgen-mediated cell migration in prostate cancer cells. […] Cell lysates were then subjected to western blot analysis and subsequent densitometry (right). Phospho-[…]) levels were normalized to total CaMKI. Results are expressed as fold induction/phosphorylation over double vehicle-treated cells+SE (n=2). *, P<0.05 indicates significant changes from vehicle-treated cells. ^#, P<0.05 indicates significant changes from vehicle (no STO-609)-treated cells. B, VCaP cells were plated in 96-well plates and grown for 3 d. […] On d 10, cells were lysed and the relative number of cells was measured with the fluorescent DNA binding dye FluoReporter Blue. Each sample was performed in triplicate, and results from a representative experiment are shown. […] Cells were then dissociated and reseeded into the top chamber for a Boyden dual chamber migration assay. Fresh medium with the corresponding treatments was added to the top and bottom chambers while either no chemoattractant or 5% FBS (serum) was added to the bottom chamber. After 16 h, migrated cells were fixed, stained with crystal violet and counted in three different microscopic fields and added together. […]

[3] = test system: LNCaP cells; experiment: Matrigel extracellular matrix invasion assay; settings: 1 h +/-30 mM STO-609, overnight +/-10 nM R1881
Description: FIG. 7. CaMKKβ activity in the androgen-mediated migration and invasion of prostate cancer cells. A, LNCaP cells were plated in 96-well plates and grown for 3 d. […] On d 10, cells were lysed and the relative number of cells was measured with the fluorescent DNA binding dye FluoReporter Blue. Each sample was performed in triplicate, and results from a representative experiment are shown. […] Cells were then dissociated and reseeded into the top chamber for a Boyden migration or Matrigel extracellular matrix invasion assay. Fresh medium with the corresponding treatments was added to the top and bottom chambers while either no chemoattractant or 5% FBS (serum) was added to the bottom chamber. After 16 h, migrated cells were fixed, stained and counted in three different microscopic fields and added together. […] C top, LNCaP cells were transfected with indicated siRNAs. […] D right, LNCaP cells stably expressing either GAL4 (control) or CaMKKβ were subjected to a migration assay as described in B using +/−5% FBS as chemoattractant. The results are expressed as mean+SE (n=3). *, significant changes from LNCaP-GAL4 cells. D left, western blot confirming CaMKKβ […]expression. Migration and invasion assays. Boyden dual chamber migration assays were performed as previously described (4). […]

[4] = test system: CaMKI phosphorylation (T177) by CaMKKβ; experiment: Western blot of phospho-CaMKI (readout of CaMKKβ activity); settings: for androgen-increased phosphorylation of CaMKI (T177): STO-609 pretreatment
Description: A, LNCaP cells were pretreated for 1 h with vehicle, 10 or 30 mM STO-609 prior to overnight treatment with vehicle, 100 pM or 10 nM R1881. Cell lysates were then subjected to western blot analysis and subsequent densitometry (right). Phospho-CaMKI (p-CaMKI) levels were normalized to total CaMKI. Results are expressed as fold induction/phosphorylation over double vehicle-treated cells+SE (n=2). *, P<0.05 indicates significant changes from vehicle-treated cells. ^#, P<0.05 indicates significant changes from vehicle (no STO-609)-treated cells.
A, LNCaP cells were pretreated for 1 h+/−30 mM STO-609 prior to overnight treatment+/−10 nM R1881. Cell lysates were then subjected to western blot analysis and subsequent densitometry (right). CaMKKβ levels were normalized to GAPDH. Phospho-CaMKI (p-CaMKI) levels were normalized to total CaMKI. Phospho-AMPK (p-AMPK) levels were normalized to total AMPK. Results are expressed as fold induction/phosphorylation over double vehicle-treated cells+SE (n=3). *, significant changes from vehicle-treated cells.

[5] = test system: AMPK phosphorylation (T172) by CaMKKβ; experiment: Western blot of phospho-AMPK; settings: STO-609 pretreatment
Description: A, LNCaP cells were pretreated for 1 h+/−30 mM STO-609 prior to overnight treatment+/−10 nM R1881. Cell lysates were then subjected to western blot analysis and subsequent densitometry (right). CaMKKβ levels were normalized to GAPDH. Phospho-CaMKI (p-CaMKI) levels were normalized to total CaMKI. Phospho-AMPK (p-AMPK) levels were normalized to total AMPK. Results are expressed as fold induction/phosphorylation over double vehicle-treated cells+SE (n=3). *, significant changes from vehicle-treated cells. B, LNCaP cells stably expressing either GAL4 or CaMKKβ □were treated overnight+/−10 nM R1881. Cell lysates were then subjected as in A to western blot analysis and densitometry (right). Results are expressed as fold induction/phosphorylation over LNCaP-GAL4 vehicle-treated cells+SE (n=3). *, significant changes from LNCaP-GAL4 vehicle-treated cells. […]
A, VCaP cells were treated for 24 h+/−10 nM R1881. […] Results are expressed as fold induction/phosphorylation over vehicle-treated cells+SE (n=2). *, P<0.05 indicates significant changes from vehicle-treated cells. […]
Western blot analysis. […] For each sample, protein levels were determined by densitometry using the ImageJ software (NIH) and normalizing to indicated controls.

SMILES: O=C(O)c1ccc2c3c1cccc3c(=O)n1c3ccccc3nc21 [STO-609]
- effect on cell number (androgen-mediated cellular growth) [1]: no significant effect
- androgen-mediated migration [2]: blocked the androgen-mediated migration
- androgen-mediated invasion through Matrigel extracellular matrix [3]: inhibited androgen-mediated invasion
- CaMKKβ activity (phospho-CaMKI levels) ([4]; LNCaP, 1 h pretreatment with 10 or 30 mM STO-609, then overnight 100 pM or 10 nM R1881): suppressed CaMKKβ activity
- androgen-increased phosphorylation of CaMKI (T177) ([4]; LNCaP, 10 nM R1881): reversed
- androgen-increased phosphorylation of CaMKI (T177) ([4]; VCaP): reversed
- androgen-increased phosphorylation of AMPK (T172) ([5]; LNCaP, 10 nM R1881): reversed
- androgen-increased phosphorylation of AMPK (T172) ([5]; VCaP): reversed
